Data: ChEMBL document CHEMBL4725292 (J Med Chem, 2020)
pIC50: −log10 of the molar value.

How the values were obtained:
[1] = Lipophilicity, logD of the compound at pH 7.4 by chromatographic method; type: physicochemical; conditions: buffer
[2] = target: Bromodomain-containing protein 4 (Homo sapiens, UniProt O60885, Y97A); experiment: Displacement of Alexa Fluor 647 labelled ligand from His6-tagged BRD4 BD2 (1 to 477 residues)/BD1 Y97A mutant (unknown origin) after 30 mins by TR-FRET assay
[3] = test system: Bromodomain-containing protein 4 (Homo sapiens), O60885 [UNDEFINED MUTATION]; experiment: Selectivity index, […] for His6-thr-tagged BRD4 BD1 (1 to 477 residues)/BD2 Y390A mutant (unknown origin) to pIC50 for His6-tagged BRD4 BD2 (1 to 477 residues)/BD1 Y97A mutant (unknown origin)
[4] = target: Bromodomain-containing protein 4 (Homo sapiens, UniProt O60885, Y390A); experiment: Displacement of Alexa Fluor 647 labelled ligand from His6-thr-tagged BRD4 BD1 (1 to 477 residues)/BD2 Y390A mutant (unknown origin) after 30 mins by TR-FRET assay
[5] = Permeability of the compound in pH 7.4 phosphate buffer measured after 3 hrs by artificial membrane permeability assay based HPLC analysis; type: ADME; conditions: PAMPA, pH 7.4, read-out: permeability
[6] = target: T1, ATPase family AAA domain-containing protein 2 (Homo sapiens, UniProt Q6PL18); experiment: Inhibition of ATAD2 (unknown origin) by TR-FRET assay
T1 sequence (Q6PL18 whole entry): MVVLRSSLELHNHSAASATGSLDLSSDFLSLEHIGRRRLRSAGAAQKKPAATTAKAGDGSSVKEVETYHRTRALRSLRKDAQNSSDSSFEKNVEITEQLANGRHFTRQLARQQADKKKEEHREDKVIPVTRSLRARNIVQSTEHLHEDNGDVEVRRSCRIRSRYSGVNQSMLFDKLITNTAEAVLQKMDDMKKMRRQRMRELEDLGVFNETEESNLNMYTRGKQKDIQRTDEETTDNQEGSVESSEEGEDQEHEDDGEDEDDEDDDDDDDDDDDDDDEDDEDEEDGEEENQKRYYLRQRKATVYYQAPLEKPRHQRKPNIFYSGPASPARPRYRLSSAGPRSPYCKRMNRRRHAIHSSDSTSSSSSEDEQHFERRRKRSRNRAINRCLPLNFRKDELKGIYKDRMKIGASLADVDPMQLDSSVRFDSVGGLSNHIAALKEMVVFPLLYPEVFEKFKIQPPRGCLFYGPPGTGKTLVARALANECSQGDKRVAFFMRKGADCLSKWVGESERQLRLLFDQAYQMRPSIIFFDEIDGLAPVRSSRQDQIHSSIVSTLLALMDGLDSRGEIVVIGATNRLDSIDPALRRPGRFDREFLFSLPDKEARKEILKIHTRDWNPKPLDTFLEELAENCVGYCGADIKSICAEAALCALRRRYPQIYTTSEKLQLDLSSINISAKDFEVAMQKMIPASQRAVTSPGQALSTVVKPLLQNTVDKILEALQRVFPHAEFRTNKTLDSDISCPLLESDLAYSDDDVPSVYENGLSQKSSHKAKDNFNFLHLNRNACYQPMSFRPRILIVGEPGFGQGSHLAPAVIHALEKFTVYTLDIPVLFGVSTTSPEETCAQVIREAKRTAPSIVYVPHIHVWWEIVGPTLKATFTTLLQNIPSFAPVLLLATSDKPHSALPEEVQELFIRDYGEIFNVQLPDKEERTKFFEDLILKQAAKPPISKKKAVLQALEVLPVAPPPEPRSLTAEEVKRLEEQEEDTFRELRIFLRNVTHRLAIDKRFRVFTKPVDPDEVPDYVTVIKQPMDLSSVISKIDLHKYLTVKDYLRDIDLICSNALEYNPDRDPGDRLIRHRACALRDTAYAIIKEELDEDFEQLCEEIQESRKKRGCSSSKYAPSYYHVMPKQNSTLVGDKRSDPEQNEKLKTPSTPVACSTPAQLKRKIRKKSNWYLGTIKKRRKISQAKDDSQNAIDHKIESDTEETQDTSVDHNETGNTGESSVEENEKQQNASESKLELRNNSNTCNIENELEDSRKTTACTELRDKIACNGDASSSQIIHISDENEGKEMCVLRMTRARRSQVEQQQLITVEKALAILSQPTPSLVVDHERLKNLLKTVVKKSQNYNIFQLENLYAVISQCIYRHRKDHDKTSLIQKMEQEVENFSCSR

chromatographic logD [1] | pIC50 [2] | Selectivity Index [3] | pIC50 [4] | logD [1] | Papp at 3 h [5] [nm/s] | pIC50 [6] | Structure (SMILES)
5.27 | 4.80 | 316 | 7.30 | – | – | – | Cc1csc(-c2cnc(N[C@@H]3CCN(C)C[C@H]3C(=O)NC3CCCCC3)c3[nH]c(=O)c(C)cc23)c1
– | 4.60 | – | 7.40 | 3.14 | 38 | – | Cc1cc2c(-c3ccco3)cnc(N[C@@H]3CCNC[C@H]3C(=O)NC3CCCCC3)c2[nH]c1=O (racemic)
1.89 | < 4.30 | > 10 | 5.30 | – | – | < 4.40 | Cc1cc2ccnc(N[C@@H]3CCNC[C@H]3C(=O)N[C@H](C)C(C)C)c2[nH]c1=O (relative stereo)
4.4 | 4.40 | 200 | 6.70 | – | – | – | Cc1cc2c(C3=CCCC3)cnc(N[C@@H]3CCNC[C@H]3C(=O)NC3CCCCC3)c2[nH]c1=O (mixture of isomers)
1.87 | 4.40 | 15 | 5.60 | – | – | < 4.40 | Cc1cc2ccnc(N[C@@H]3CCNC[C@H]3C(=O)NC3CCCC3)c2[nH]c1=O (relative stereo)
2.52 | 4.50 | 10 | 5.50 | – | < 3 | – | Cc1cc2cccc(N[C@@H]3CCNC[C@H]3C(=O)NC3CCCCC3)c2[nH]c1=O (racemic)
1.88 | < 4.30 | > 10 | 5.30 | – | – | < 4.40 | Cc1cc2ccnc(N[C@@H]3CCNC[C@@H]3C(=O)NC3CCCCC3)c2[nH]c1=O (relative stereo)
4.61 | 5.40 | 251 | 7.80 | – | – | – | Cc1cc2c(-c3cccs3)cnc(N[C@@H]3CCN(C)C[C@H]3C(=O)NC3CCCCC3)c2[nH]c1=O
4.35 | 4.80 | 316 | 7.30 | – | – | – | Cc1ccoc1-c1cnc(N[C@@H]2CCN(C)C[C@H]2C(=O)NC2CCCCC2)c2[nH]c(=O)c(C)cc12
3.36 | 4.60 | 40 | 6.20 | – | – | – | Cc1cc2c(-c3ccccc3)cnc(N[C@@H]3CCNC[C@H]3C(=O)NC3CCCCC3)c2[nH]c1=O (mixture of isomers)
2.91 | 4.90 | 316 | 7.40 | – | – | – | Cc1cc2c(-c3ccoc3)cnc(N[C@@H]3CCNC[C@H]3C(=O)NC3CCCCC3)c2[nH]c1=O (mixture of isomers)
1.05 | < 4.30 | > 15 | 5.50 | – | – | < 4.40 | Cc1cc2ccnc(N[C@@H]3CCNC[C@H]3C(=O)NCC3CC3)c2[nH]c1=O (mixture of isomers)
3.17 | – | – | – | – | – | – | CO[C@H]1CNC[C@@H](OCC2CCC(F)(F)CC2)[C@@H]1Nc1ncc(-c2cncc(C)c2)c2cc(C)c(=O)[nH]c12
0.98 | < 4.30 | > 2 | 4.60 | – | – | < 4.40 | Cc1cc2ccnc(N[C@@H]3CCNC[C@H]3C(=O)N[C@H]3CCCOC3)c2[nH]c1=O (mixture of isomers)
1.6 | < 4.30 | > 25 | 5.70 | – | – | < 4.40 | Cc1cc2ccnc(N[C@@H]3CCNC[C@H]3C(=O)NCC(C)C)c2[nH]c1=O (mixture of isomers)
3.12 | 5.00 | – | 5.80 | – | – | – | Cc1cc2c(-c3ccco3)cnc(N[C@H]3CCNC[C@@H]3C(=O)NC3CCCCC3)c2[nH]c1=O

chromatographic logD [1] | pIC50 [2] | Selectivity Index [3] | pIC50 [4] | logD [1] | Papp at 3 h [5] [nm/s] | pIC50 [6] | Structure (SMILES)
4.33 | 4.80 | 631 | 7.60 | – | – | – | Cc1ccc(-c2cnc(N[C@@H]3CCN(C)C[C@H]3C(=O)NC3CCCCC3)c3[nH]c(=O)c(C)cc23)o1
3.55 | 4.50 | 250 | 6.90 | – | – | – | C/C=C/c1cnc(N[C@@H]2CCNC[C@H]2C(=O)NC2CCCCC2)c2[nH]c(=O)c(C)cc12 (racemic)
2.36 | < 4.30 | > 30 | 5.80 | – | – | < 4.40 | Cc1cc2ccnc(N[C@@H]3CCNC[C@H]3C(=O)NCC3CCCC3)c2[nH]c1=O (mixture of isomers)
2.43 | 4.70 | 251 | 7.10 | – | – | – | Cc1cc2c(-c3cnn(C)c3)cnc(N[C@@H]3CCN(C)C[C@H]3C(=O)NC3CCCCC3)c2[nH]c1=O
1.47 | 4.80 | 100 | 6.80 | – | – | – | Cc1cc2c(-c3cnn(C)c3)cnc(N[C@@H]3CCNC[C@H]3C(=O)NC3CCCCC3)c2[nH]c1=O (mixture of isomers)
0.85 | < 4.30 | > 10 | 5.40 | – | – | < 4.40 | Cc1cc2ccnc(N[C@@H]3CCNC[C@H]3C(=O)N[C@@H]3CCCOC3)c2[nH]c1=O (mixture of isomers)
5.3 | < 4.30 | > 794 | 7.20 | – | – | – | Cc1ccc(-c2cnc(N[C@@H]3CCN(C)C[C@H]3C(=O)NC3CCCCC3)c3[nH]c(=O)c(C)cc23)s1
4.78 | 4.90 | 10 | 6.00 | – | – | – | Cc1cc2c(C3=CCCCC3)cnc(N[C@@H]3CCNC[C@H]3C(=O)NC3CCCCC3)c2[nH]c1=O (mixture of isomers)
0.71 | 4.90 | 5 | 5.60 | – | – | < 4.40 | Cc1cc2ccnc(N[C@@H]3CCNC[C@H]3C(=O)NC3CCOCC3)c2[nH]c1=O (mixture of isomers)
1.08 | 4.50 | 4 | 5.10 | – | – | < 4.40 | CO[C@@H](C)CNC(=O)[C@@H]1CNCC[C@H]1Nc1nccc2cc(C)c(=O)[nH]c12 (mixture of isomers)
5.13 | 4.50 | 316 | 7.00 | – | – | – | Cc1ccsc1-c1cnc(N[C@@H]2CCN(C)C[C@H]2C(=O)NC2CCCCC2)c2[nH]c(=O)c(C)cc12 (relative stereo)
2.07 | 4.40 | 30 | 5.90 | – | – | – | Cc1cc2c(C3=CCOCC3)cnc(N[C@@H]3CCNC[C@H]3C(=O)NC3CCCCC3)c2[nH]c1=O (mixture of isomers)
3.79 | < 4.30 | > 501 | 7.00 | – | – | – | Cc1cc2c(-c3ccsc3)cnc(N[C@@H]3CCNC[C@H]3C(=O)NC3CCCCC3)c2[nH]c1=O (mixture of isomers)
3.23 | 4.50 | 630 | 7.30 | – | – | – | Cc1cc2c(-c3cccs3)cnc(N[C@@H]3CCNC[C@H]3C(=O)NC3CCCCC3)c2[nH]c1=O (racemic)
2.51 | < 4.30 | > 40 | 5.90 | – | – | – | Cc1cncc(-c2cnc(N[C@@H]3CCNC[C@H]3C(=O)NC3CCCCC3)c3[nH]c(=O)c(C)cc23)c1 (relative stereo)
4.46 | 4.70 | 501 | 7.40 | – | – | – | Cc1coc(-c2cnc(N[C@@H]3CCN(C)C[C@H]3C(=O)NC3CCCCC3)c3[nH]c(=O)c(C)cc23)c1
